The text below walks through data of PMC11348715 (Chemical Science, 2024).

Structures are written as SMILES.

A short description of the series: Caco-2 permeability assay. The class given is in vitro ADME. Particulars: human. (Caco-2 cells form a polarised layer with tight junctions and transporters.)

The term Papp A→B denotes how fast a substance crosses the layer from the apical side. Lower therefore signals poor permeation.

As to `C[C@H]1O[C@@H](O[C@H]2[C@@H](O)C[C@H](O[C@H]3[C@@H](O)C[C@H](O[C@H]4CC[C@@]5(C)[C@H](CC[C@@H]6[C@@H]5C[C@@H](O)[C@]5(C)[C@@H](C7=CC(=O)OC7)CC[C@]65O)C4)O[C@@H]3C)O[C@@H]2C)C[C@H](O)[C@@H]1O` [digoxin], the Papp A→B at 10 µM was found to be 15.9 nm/s. Under `COCCc1ccc(OCC(O)CNC(C)C)cc1` (centres unmarked) [metoprolol] stands 198 nm/s.
